This passage reports IC50 and EC50 results from ChEMBL document CHEMBL1137493, “Synthesis and potent antitumor activity of new arylamino derivatives of nor-beta-lapachone and nor-alpha-lapachone” (Bioorg Med Chem, 2007).

Values after ≈ are worked out from the molar mass of the structure shown.

The IC50 is the point on the concentration scale where inhibition reaches its midpoint. A higher IC50 goes with lower potency. The EC50 is the concentration giving half of the maximal effect.

In one data set the test system is HL-60. Briefly: Cytotoxicity against human HL60 cells after 72 hrs by MTT assay. Type of data set: functional, cell-based. To be noted: HL-60, 72 h. (In general: Tetrazolium assays rely on reduction of a dye to a coloured formazan, in cell work by metabolically active cells.)
In the next data set the test system is HCT-8. Briefly: Cytotoxicity against human HCT8 cells after 72 hrs by MTT assay. Type of data set: functional, cell-based. To be noted: HCT-8, 72 h.
Another data set relates to MDA-MB-435. Briefly: Cytotoxicity against human MDA-MB-435 cells after 72 hrs by MTT assay. Type of data set: functional, cell-based. Particulars: MDA-MB-435, 72 h.
For another data set, the system named is SF-295. Briefly: Cytotoxicity against human SF295 cells after 72 hrs by MTT assay. It counts as functional, cell-based. Particulars: SF-295, 72 h.
A further data set relates to B16. Briefly: Cytotoxicity against mouse B16 cells after 72 hrs by MTT assay. Type of data set: functional, cell-based. Particulars: B16, 72 h.
The test system of a further data set is PC-3. Briefly: Cytotoxicity against human PC3 cells after 72 hrs by MTT assay. Particulars: PC-3, 72 h. It counts as cell-based.
Another data set relates to L929. Briefly: Cytotoxicity against mouse L929 cells after 72 hrs by MTT assay. To be noted: L929, 72 h. It counts as cell-based.
Data set [1] in a line: Toxicity assessed as hemolytic activity against mouse erythrocyte. Particulars: mouse erythrocytes. Type of data set: cell-based.

In the case of `CC1(C)OC2=C(C(=O)C(=O)c3ccccc32)C1Nc1cccc(Cl)c1` (stereo not given), the IC50 in the data set with HL-60 was 0.39 µg/mL (≈ 1.1 µM); in the data set with HCT-8, 0.51 µg/mL (≈ 1.44 µM); in the data set on MDA-MB-435 it was 0.17 µg/mL (≈ 0.48 µM); with SF-295, 0.36 µg/mL (≈ 1.02 µM); in the data set with B16, 0.56 µg/mL (≈ 1.58 µM); with PC-3, 0.49 µg/mL (≈ 1.38 µM). The same compound had an IC50 in the data set on L929 of 1.16 µg/mL (≈ 3.28 µM). For the same compound, the EC50 in data set [1] was above 200 µg/mL.
Consider `COc1cccc2c1C(=O)c1c(O)c3c(c(O)c1C2=O)C[C@@](O)(C(=O)CO)C[C@@H]3O[C@H]1C[C@H](N)[C@H](O)[C@H](C)O1` [DOXORUBICIN], for which the IC50 in the data set with HCT-8 worked out at 0.04 µg/mL (≈ 0.0736 µM); in the data set on SF-295, 0.25 µg/mL (≈ 0.46 µM); in the data set with B16, 0.03 µg/mL (≈ 0.0552 µM); with PC-3 it was 0.24 µg/mL (≈ 0.442 µM).
As for `CC1(C)OC2=C(C(=O)C(=O)c3ccccc32)C1Nc1cccc(Br)c1` (stereo not given), the IC50 in the data set with HL-60 is 0.5 µg/mL (≈ 1.26 µM); with HCT-8 it was 0.7 µg/mL (≈ 1.76 µM); in the data set with MDA-MB-435 it was 0.2 µg/mL (≈ 0.502 µM); in the data set with SF-295, 0.93 µg/mL (≈ 2.34 µM); in the data set on B16, 0.48 µg/mL (≈ 1.21 µM); in the data set with PC-3, 0.46 µg/mL (≈ 1.16 µM). The midpoint of inhibition in the data set on L929, the IC50, lay at 1.02 µg/mL (≈ 2.56 µM). The EC50 in data set [1] is above 200 µg/mL.
Take `CC1(C)OC2=C(C(=O)C(=O)c3ccccc32)C1Nc1ccccc1` (stereo not given): the IC50 turned out to be 0.66 µg/mL (≈ 2.07 µM) with HL-60; 0.99 µg/mL (≈ 3.1 µM) with HCT-8; 0.3 µg/mL (≈ 0.939 µM) in the data set with MDA-MB-435; 0.89 µg/mL (≈ 2.79 µM) in the data set with SF-295; 0.74 µg/mL (≈ 2.32 µM) in the data set with B16; 0.31 µg/mL (≈ 0.971 µM) in the data set on PC-3. Inhibition in the data set with L929 was half-maximal at 2.72 µg/mL (≈ 8.52 µM) (IC50). Besides, the EC50 in data set [1] was above 200 µg/mL.
For the compound `Cc1ccc(C)c(NC2C3=C(OC2(C)C)c2ccccc2C(=O)C3=O)c1` (stereo not given), the IC50 in the data set with HL-60 was determined as 1.27 µg/mL (≈ 3.66 µM); in the data set on HCT-8, 1.59 µg/mL (≈ 4.58 µM); in the data set with MDA-MB-435, 0.27 µg/mL (≈ 0.777 µM); in the data set with SF-295, 2.08 µg/mL (≈ 5.99 µM); in the data set on B16 it was 3.03 µg/mL (≈ 8.72 µM); in the data set with PC-3, 0.32 µg/mL (≈ 0.921 µM). Further, the IC50 with L929 is above 5 µg/mL. The EC50 in data set [1] was above 200 µg/mL.
Consider `CC1(C)CC2=C(O1)c1ccccc1C(=O)C2=O` [NOR-BETA-LAPACHONE], for which the IC50 is 0.4 µg/mL (≈ 1.75 µM) in the data set on HL-60, 0.31 µg/mL (≈ 1.36 µM) in the data set on HCT-8, 0.07 µg/mL (≈ 0.307 µM) in the data set on MDA-MB-435 and 0.36 µg/mL (≈ 1.58 µM) in the data set on SF-295. Besides, the EC50 in data set [1] is above 200 µg/mL.
For `CC1(C)CCC2=C(O1)c1ccccc1C(=O)C2=O` [LAPACHONE], in that order: 0.4 µg/mL (≈ 1.65 µM), 0.2 µg/mL (≈ 0.826 µM), 0.06 µg/mL (≈ 0.248 µM), 0.22 µg/mL (≈ 0.908 µM) and above 200 µg/mL.
Turning to `CC1(C)OC2=C(C(=O)C(=O)c3ccccc32)C1Nc1ccc(F)cc1` (stereo not given), the IC50 stood at 0.32 µg/mL (≈ 0.949 µM) in the data set with HL-60; 0.51 µg/mL (≈ 1.51 µM) in the data set with HCT-8; 0.12 µg/mL (≈ 0.356 µM) in the data set on MDA-MB-435; 0.59 µg/mL (≈ 1.75 µM) in the data set on SF-295; 0.42 µg/mL (≈ 1.24 µM) in the data set on B16; 0.31 µg/mL (≈ 0.919 µM) in the data set with PC-3. The midpoint of inhibition with L929, the IC50, lay at 0.52 µg/mL (≈ 1.54 µM). The EC50 in data set [1] was above 200 µg/mL.
`CC1(C)OC2=C(C(=O)c3ccccc3C2=O)C1Nc1ccccc1` (stereo not given): the IC50 in the data set on HL-60 came out at 2.99 µg/mL (≈ 9.36 µM); in the data set on HCT-8, 1.43 µg/mL (≈ 4.48 µM); in the data set with MDA-MB-435 it was 0.89 µg/mL (≈ 2.79 µM); in the data set with SF-295 it was 2.52 µg/mL (≈ 7.89 µM); in the data set with B16 it was 1 µg/mL (≈ 3.13 µM); with PC-3, 1.34 µg/mL (≈ 4.2 µM). This compound also showed an IC50 with L929 of 3.08 µg/mL (≈ 9.64 µM). Moreover, the half-maximal effective concentration (EC50) in data set [1] was above 200 µg/mL.
On to `CC1(C)OC2=C(C(=O)C(=O)c3ccccc32)C1Nc1cccc([N+](=O)[O-])c1` (stereo not given), for which the IC50 in the data set with HL-60 worked out at 0.33 µg/mL (≈ 0.906 µM); in the data set on HCT-8, 0.64 µg/mL (≈ 1.76 µM); in the data set with MDA-MB-435, 0.23 µg/mL (≈ 0.631 µM); in the data set with SF-295 it was 0.5 µg/mL (≈ 1.37 µM); in the data set on B16, 0.43 µg/mL (≈ 1.18 µM); in the data set with PC-3, 0.41 µg/mL (≈ 1.13 µM). Moreover, in the data set with L929, the IC50 is 0.42 µg/mL (≈ 1.15 µM). The EC50 in data set [1] is above 200 µg/mL.
